Literature values in US9182414B2, “Methods for identifying a GLP-1 secretagogue” (Arena Pharmaceuticals, Inc., priority 2005, dated 2015).
Square brackets hold non-standard residues; d marks the D form. Peptide text beside a SMILES is read from it. * marks the point of attachment. NHPhenethyl = c1ccc(CCN*)cc1; Nphe = O=C(O)CNCc1ccccc1; PhAc = O=C(Cc1ccccc1)*; βAla = NCCC(=O)O

Biological target: T1, BRS-3 (Homo sapiens, UniProt P32247)
T1 sequence (P32247 1-399): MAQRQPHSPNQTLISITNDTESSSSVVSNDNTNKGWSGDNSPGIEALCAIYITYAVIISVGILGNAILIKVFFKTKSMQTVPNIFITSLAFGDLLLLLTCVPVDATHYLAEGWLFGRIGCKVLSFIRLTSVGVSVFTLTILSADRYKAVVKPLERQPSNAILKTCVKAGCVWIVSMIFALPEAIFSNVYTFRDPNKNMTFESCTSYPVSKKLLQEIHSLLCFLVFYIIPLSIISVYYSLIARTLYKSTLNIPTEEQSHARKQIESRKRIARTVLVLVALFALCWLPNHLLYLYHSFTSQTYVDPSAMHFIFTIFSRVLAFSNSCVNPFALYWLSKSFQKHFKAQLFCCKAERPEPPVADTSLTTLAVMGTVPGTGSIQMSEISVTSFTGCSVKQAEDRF
Conditions: BRS-3 over GRP-R and NMB-R; description taken from literature

Compound | selectivity as BRS-3 agonist
NC(=O)CC[C@H](NC(=O)CCc1ccc(Cl)cc1)C(=O)N[C@H](Cc1c[nH]c2ccccc12)C(=O)NCCc1ccccc1 [Compound 1, N1-{(1R)-2-(1H-3-Indolyl)-1-[1-(2-phenylethyl)carbamoyl]ethyl}-(2S)-2-[1-(2-(4-chlorophenyl)ethyl)carboxamido]pentanediamide] | selective BRS-3 agonists
NC(=O)CC[C@H](NC(=O)Cc1cc2ccccc2[nH]1)C(=O)N[C@H](Cc1c[nH]c2ccccc12)C(=O)NCCc1ccccc1 [Compound 2, N1-{(1R)-2-(1H-3-Indolyl)-1-[1-(2-phenylethyl)carbamoyl]ethyl}-(2S)-2-[(1H-2-indolylmethyl)carboxamido]pentanediamide] | selective BRS-3 agonists
C[C@H](NC(=O)Cc1ccccc1)C(=O)N[C@H](Cc1c[nH]c2ccccc12)C(=O)NCCc1ccccc1 [Compound 3, N1-(2-Phenylethyl)-(2R)-2-{[(1S)-1-(benzylcarboxamido)ethyl]carboxamido}-3-(1H-3-indolyl)propanamide] (PhAc-Ala-[dW]-NHPhenethyl) | selective BRS-3 agonists
C[C@H](NC(=O)Cc1ccc(Cl)cc1)C(=O)N[C@H](Cc1c[nH]c2ccccc12)C(=O)NCCc1ccccc1 [Compound 4, N1-(2-Phenylethyl)-(2R)-2-{[(1S)-1-((4-chlorobenzyl)-carboxamido)ethyl]carboxamido}-3-(1H-3-indolyl)propanamide] | selective BRS-3 agonists
C[C@H](NC(=O)Cc1ccc2c(c1)OCO2)C(=O)N[C@H](Cc1c[nH]c2ccccc12)C(=O)NCCc1ccccc1 [Compound 5, N1-(2-Phenylethyl)-(2R)-2-{[(1S)-1-((1,3-benzodioxol-5-ylmethyl)carboxamido)ethyl]carboxamido}-3-(1H-3-indolyl)propanamide] | selective BRS-3 agonists
C[C@H](NC(=O)Cc1cccnc1)C(=O)N[C@H](Cc1c[nH]c2ccccc12)C(=O)NCCc1ccccc1 [Compound 6, N1-(2-Phenylethyl)-(2R)-2-{[(1S)-1-((3-pyridyl)methylcarboxamido)ethyl]carboxamido}-3-(1H-3-indolyl)propanamide] | selective BRS-3 agonists
C[C@H](NC(=O)CC1NCCc2ccccc21)C(=O)N[C@H](Cc1c[nH]c2ccccc12)C(=O)NCCc1ccccc1 (stereo partly drawn) [Compound 7, N1-(2-Phenylethyl)-(2R)-2-{[(1S)-1-((1,2,3,4-tetrahydro-1-isoquinolinyl)methylcarboxamido)ethyl]carboxamido}-3-(1H-3-indolyl)propanamide] | selective BRS-3 agonists
C[C@H](NC(=O)Cc1cc2ccccc2[nH]1)C(=O)N[C@H](Cc1c[nH]c2ccccc12)C(=O)NCCc1ccccc1 [Compound 8, N1-(2-Phenylethyl)-(2R)-2-{[(1S)-1-((1H2-indolyl)methylcarboxamido)ethyl]carboxamido}-3-(1H-3-indolyl)propanamide] | selective BRS-3 agonists
O=C(CNCc1ccccc1)N[C@H](Cc1c[nH]c2ccccc12)C(=O)NCCc1ccccc1 [Compound 9, N1-(2-Phenylethyl)-(2R)-2-{[(benzyl)amino]methylcarboxamido}-3-(1H-3-indolyl)propanamide] (H-[Nphe]-[dW]-NHPhenethyl) | selective BRS-3 agonists
O=C(CNCc1ccc(Cl)cc1)N[C@H](Cc1c[nH]c2ccccc12)C(=O)NCCc1ccccc1 [Compound 10, N1-(2-Phenylethyl)-(2R)-2-{[(4-chlorobenzyl)amino]-methylcarboxamido}-3-(1H-3-indolyl)propanamide] | selective BRS-3 agonists
O=C(CNCc1cccnc1)N[C@H](Cc1c[nH]c2ccccc12)C(=O)NCCc1ccccc1 [Compound 11, N1-(2-Phenylethyl)-(2R)-2-{[(3-pyridyl)methylamino]-methylcarboxamido}-3-(1H-3-indolyl)propanamide] | selective BRS-3 agonists
O=C(CNCCc1ccccc1)N[C@H](Cc1c[nH]c2ccccc12)C(=O)NCCc1ccccc1 [Compound 12, N1-(2-Phenylethyl)-(2R)-2-{[1-(2-phenylethyl)amino]-methylcarboxamido}-3-(1H-3-indolyl)propanamide] | selective BRS-3 agonists
CC(NCc1ccccc1)C(=O)N[C@H](Cc1c[nH]c2ccccc12)C(=O)NCCc1ccccc1 (stereo partly drawn) [Compound 13] | selective BRS-3 agonists
CC(NCc1ccc(Cl)cc1)C(=O)N[C@H](Cc1c[nH]c2ccccc12)C(=O)NCCc1ccccc1 (stereo partly drawn) [Compound 14, N1-(2-Phenylethyl)-(2R)-2-{[1-((4-chlorobenzyl)amino)ethyl]carboxamido}-3-(1H-3-indolyl)propanamide] | selective BRS-3 agonists
CC(NCCc1ccccc1)C(=O)N[C@H](Cc1c[nH]c2ccccc12)C(=O)NCCc1ccccc1 (stereo partly drawn) [Compound 15, N1-(2-Phenylethyl)-(2R)-2-{[1-(1-(2-phenylethyl)amino)ethyl]carboxamido}-3-(1H-3-indolyl)propanamide] | selective BRS-3 agonists
O=C(NNC(=O)c1ccccc1)N[C@H](Cc1c[nH]c2ccccc12)C(=O)NCCc1ccccc1 [Compound 16, N1-(2-Phenylethyl)-(2R)-2-{{N′-(benzoyl)hydrazino]carboxamido}-3-(1H-3-indolyl)propanamide] | selective BRS-3 agonists
O=C(NNC(=O)c1ccc(Cl)cc1)N[C@H](Cc1c[nH]c2ccccc12)C(=O)NCCc1ccccc1 [Compound 17, N1-(2-Phenylethyl)-(2R)-2-{{N′-(4-chlorobenzoyl)-hydrazino]carboxamido}-3-(1H-3-indolyl)propanamide] | selective BRS-3 agonists
O=C(Cc1cccnc1)NNC(=O)N[C@H](Cc1c[nH]c2ccccc12)C(=O)NCCc1ccccc1 [Compound 18, N1-(2-Phenylethyl)-(2R)-2-{[N′-(2-(3-pyridyl)ethanoyl)hydrazino]carboxamido}-3-(1H-3-indolyl)propanamide] | selective BRS-3 agonists
O=C(CC1NCCc2ccccc21)NNC(=O)N[C@H](Cc1c[nH]c2ccccc12)C(=O)NCCc1ccccc1 (stereo partly drawn) [Compound 19, N1-(2-Phenylethyl)-(2R)-2-{{N′-(2-(1,2,3,4-tetrahydro-1-isoquinolinyl)ethanoyl)hydrazino]carboxamido}-3-(1H-3-indolyl)propanamide] | selective BRS-3 agonists
O=C(Cc1cc2ccccc2[nH]1)NNC(=O)N[C@H](Cc1c[nH]c2ccccc12)C(=O)NCCc1ccccc1 [Compound 20, N1-(2-Phenylethyl)-(2R)-2-{[N′-(2-(1H-2-indolyl)ethanoyl)hydrazino]carboxamido}-3-(1H-3-indolyl)propanamide] | selective BRS-3 agonists
O=C(NN=Cc1ccccc1)N[C@H](Cc1c[nH]c2ccccc12)C(=O)NCCc1ccccc1 [Compound 21, N1-(2-Phenylethyl)-(2R)-2-{[N′-(phenylmethylene)-hydrazino]carboxamido}-3-(1H-3-indolyl)propanamide] | selective BRS-3 agonists
O=C(NN=Cc1ccco1)N[C@H](Cc1c[nH]c2ccccc12)C(=O)NCCc1ccccc1 [Compound 22, N1-(2-Phenylethyl)-(2R)-2-{[N′-(furan-2-ylmethylene)hydrazino]carboxamido}-3-(1H-3-indolyl)propanamide] | selective BRS-3 agonists
O=C(NNCc1ccccc1)N[C@H](Cc1c[nH]c2ccccc12)C(=O)NCCc1ccccc1 [Compound 23, N1-(2-Phenylethyl)-(2R)-2-{[N′-(benzyl)hydrazino]carboxamido}-3-(1H-3-indolyl)propanamide] | selective BRS-3 agonists
O=C(NNCc1ccc(Cl)cc1)N[C@H](Cc1c[nH]c2ccccc12)C(=O)NCCc1ccccc1 [Compound 24, N1-(2-Phenylethyl)-(2R)-2-{[N′-(4-chlorobenzyl)hydrazino]carboxamido}-3-(1H-3-indolyl)propanamide] | selective BRS-3 agonists
O=C(NNCc1ccco1)N[C@H](Cc1c[nH]c2ccccc12)C(=O)NCCc1ccccc1 [Compound 25, N1-(2-Phenylethyl)-(2R)-2-{[N′-(2-furylmethyl)hydrazino]carboxamido}-3-(1H-3-indolyl)propanamide] | selective BRS-3 agonists
O=C(CN1CCN(Cc2ccccc2)CC1)N[C@H](Cc1c[nH]c2ccccc12)C(=O)NCCc1ccccc1 [Compound 26] | selective BRS-3 agonists
O=C(CN1CCC(Cc2ccccc2)CC1)N[C@H](Cc1c[nH]c2ccccc12)C(=O)NCCc1ccccc1 [Compound 27, N1-(2-Phenylethyl)-(2R)-2-{[(4-benzylpiperidino)methyl]carboxamido}-3-(1H-3-indolyl)propanamide] | selective BRS-3 agonists
Ac-FWAV[βAla]HRW-NH2 [Compound 33] | selective BRS-3 agonists
Ac-Phe-Trp-Ala-His(τBzl)-Nip-Gly-Arg-NH2 [Compound 31] | selective BRS-3 agonists
Ac-Phe-Trp-Ala-His(τBzl)-βAla-His-Arg-NH2 [Compound 32] | selective BRS-3 agonists
